The source of these data is ChEMBL document CHEMBL1122714, “Pyrazolo[4,3-d]pyrimidine nucleosides. Synthesis and antiviral activity of 1-beta-D-ribofuranosyl-3-methyl-6-substituted-7H-pyrazolo[4,3-d]pyr imi din-7-ones” (1984).

The experiment deals with Human alphaherpesvirus 1. The experiment can be described thus: In vitro antiviral activity by means of plaque-inhibition assay with monolayers of Vero cells infected with the MP strain of herpes simplex virus-1 (HSV-1). The note with it: Human alphaherpesvirus 1, Vero; read-out: ED50 (the source's name). It is filed as functional.
In the case of `Cc1nn(C2O[C@H](CO)[C@@H](O)[C@H]2O)c2c(=O)n(-c3ccc(Cl)cc3)cnc12` (some centres undefined), the EC50 was found to be 50 µM. With `CCCCn1cnc2c(C)nn(C3O[C@H](CO)[C@@H](O)[C@H]3O)c2c1=O` (some centres undefined), the EC50 came out at 152 µM. On to `Cc1nn(C2O[C@H](CO)[C@@H](O)[C@H]2O)c2c(=O)n(CCC(C)C)cnc12` (some centres undefined), for which the EC50 worked out at 350 µM.

For the compound `Cc1nn(C2O[C@H](CO)[C@@H](O)[C@H]2O)c2c(=O)n(Cc3ccccc3)cnc12` (some centres undefined), the EC50 was 245 µM. Consider `COc1ccc(Cn2cnc3c(C)nn(C4O[C@H](CO)[C@@H](O)[C@H]4O)c3c2=O)cc1` (some centres undefined), for which the EC50 was 49.5 µM.

Turning to `Cc1ccc(-n2cnc3c(C)nn(C4O[C@H](CO)[C@@H](O)[C@H]4O)c3c2=O)cc1` (some centres undefined), the EC50 amounted to 280 µM.

For the compound `Cc1nn(C2O[C@H](CO)[C@@H](O)[C@H]2O)c2c(=O)n(CCc3ccccc3)cnc12` (some centres undefined), the EC50 is 174 µM.

On to `Cc1nn(C2O[C@H](CO)[C@@H](O)[C@H]2O)c2c(=O)n(Cc3ccc(Cl)cc3)cnc12` (some centres undefined), for which the EC50 is 220 µM.

As for `O=c1[nH]c(=O)n([C@H]2C[C@H](O)[C@@H](CO)O2)cc1I` [IDOXURIDINE], the EC50 is 1.2 µM.
